# Results: PubChem BioAssay AID330 (DTP/NCI, 2004)
# Several values for one entry are separate records, joined by “and”; a condition that tells them apart may be missing. Equal values may be shown once. Toxic doses and inconclusive results are not listed.
# System: P388 leukemia ip, CD2F1 mice, survival T/C
# Test: NCI In Vivo Anticancer Drug Screen. Data for tumor model P388 Leukemia (intraperitoneal) in CD2F1 (CDF1) mice
# Settings: endpoint: median survival time, higher = longer survival
# Method in brief: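 Mice carrying the transplanted tumor received test compound or vehicle. Survival was recorded in each group, and the value is the treated-group measurement divided by that of the vehicle-treated control group.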
# [1] = dose: 50.0 mg/kg/injection, schedule: Q01DX009 (ip), vehicle: Klucel (hydroxypropylcellulose) (HPC)
# [2] = dose: 100.0 mg/kg/injection, schedule: Q01DX009 (ip), vehicle: Klucel (hydroxypropylcellulose) (HPC)
# [3] = dose: 100.0 mg/kg/injection, schedule: Q04DX003 (ip), vehicle: Klucel (hydroxypropylcellulose) (HPC)
# [4] = dose: 200.0 mg/kg/injection, schedule: Q04DX003 (ip), vehicle: Klucel (hydroxypropylcellulose) (HPC)
# [5] = dose: 50.0 mg/kg/injection, schedule: Q01DX009 (ip), vehicle: saline
# [6] = dose: 50.0 mg/kg/injection, schedule: Q01DX005 (ip), vehicle: saline with Tween-80
# [7] = dose: 100.0 mg/kg/injection, schedule: Q01DX005 (ip), vehicle: saline with Tween-80
# [8] = dose: 200.0 mg/kg/injection, schedule: Q01DX005 (ip), vehicle: saline with Tween-80
# [9] = dose: 100.0 mg/kg/injection, schedule: Q01DX009 (ip), vehicle: saline
# [10] = dose: 200.0 mg/kg/injection, schedule: Q01DX009 (ip), vehicle: saline
# [11] = dose: 100.0 mg/kg/injection, schedule: Q01DX001 (ip), vehicle: Klucel (hydroxypropylcellulose) (HPC)
# [12] = dose: 200.0 mg/kg/injection, schedule: Q01DX001 (ip), vehicle: Klucel (hydroxypropylcellulose) (HPC)
# [13] = dose: 400.0 mg/kg/injection, schedule: Q01DX001 (ip), vehicle: Klucel (hydroxypropylcellulose) (HPC)
smiles,measurement,setting,value
COc1cccc(Cc2ccncc2)c1OC,T/C,"dose: 12.5 mg/kg/injection, schedule: Q01DX009 (ip), vehicle: water",101 % of control
same,T/C,"dose: 25.0 mg/kg/injection, schedule: Q01DX009 (ip), vehicle: water",100 % of control
same,T/C,"dose: 50.0 mg/kg/injection, schedule: Q01DX009 (ip), vehicle: water",100 % of control
same,T/C,"dose: 100.0 mg/kg/injection, schedule: Q01DX009 (ip), vehicle: water",102 % of control
same,T/C,"dose: 200.0 mg/kg/injection, schedule: Q01DX009 (ip), vehicle: water",103 % of control
CC12CCC(Br)C(C)(C)C1C(O)C=C1C(=O)OCC1O2 (stereo not drawn),T/C,"dose: 4.0 mg/kg/injection, schedule: Q01DX005 (ip), vehicle: Klucel (hydroxypropylcellulose) (HPC)",102 % of control
same,T/C,"dose: 8.0 mg/kg/injection, schedule: Q01DX005 (ip), vehicle: Klucel (hydroxypropylcellulose) (HPC)",96 % of control
same,T/C,"dose: 16.0 mg/kg/injection, schedule: Q01DX005 (ip), vehicle: Klucel (hydroxypropylcellulose) (HPC)",102 % of control
same,T/C,"dose: 32.0 mg/kg/injection, schedule: Q01DX005 (ip), vehicle: Klucel (hydroxypropylcellulose) (HPC)",102 % of control
CCC[As](CCC)SCC1OC(OC(C)=O)C(OC(C)=O)C(OC(C)=O)C1OC(C)=O (stereo not drawn),T/C,"dose: 50.0 mg/kg/injection, schedule: Q01DX009 (ip), vehicle: saline with Tween-80",117 % of control
same,T/C,"dose: 100.0 mg/kg/injection, schedule: Q01DX009 (ip), vehicle: saline with Tween-80",110 % of control
CC(=O)OCC1OC(n2nc(-c3ccccc3)c(=O)n(-c3ccccc3)c2=O)C(OC(C)=O)C(OC(C)=O)C1OC(C)=O (stereo not drawn),T/C,"dose: 100.0 mg/kg/injection, schedule: Q04DX003 (ip), vehicle: saline with Tween-80",110 % of control
same,T/C,"dose: 200.0 mg/kg/injection, schedule: Q04DX003 (ip), vehicle: saline with Tween-80",111 % of control
O=C1c2ccccc2C(=O)C1(Br)C(Cl)c1ccccc1 (stereo not drawn),T/C,[1],90 % of control
same,T/C,[2],95 % of control
same,T/C,[3],104 % of control
same,T/C,[4],100 % of control
COc1ccc(C2c3cc4c(cc3OC(C)(OC)C2C)OCO4)c(OC)c1OC (stereo not drawn),T/C,"dose: 100.0 mg/kg/injection, schedule: Q01DX001 (ip), vehicle: saline with Tween-80",94 % of control
same,T/C,"dose: 200.0 mg/kg/injection, schedule: Q01DX001 (ip), vehicle: saline with Tween-80",94 % of control
CC(C)(C)C(=O)Oc1ccc(N=C(N)N)cc1,T/C,"dose: 50.0 mg/kg/injection, schedule: Q01DX005 (ip), vehicle: saline",102 % of control
same,T/C,"dose: 100.0 mg/kg/injection, schedule: Q01DX005 (ip), vehicle: saline",104 % of control
same,T/C,"dose: 200.0 mg/kg/injection, schedule: Q01DX005 (ip), vehicle: saline",105 % of control
CC1CN=C(c2ccc(NC(=O)NCCCNC(=O)Nc3ccc(C4=NCC(C)N4)cc3)cc2)N1 (stereo not drawn),T/C,"dose: 50.0 mg/kg/injection, schedule: Q01DX005 (ip), vehicle: Klucel (hydroxypropylcellulose) (HPC)",153 % of control and 158 % of control
CCC(CC)N(C)C(C)(C)CO,T/C,"dose: 50.0 mg/kg/injection, schedule: Q04DX003 (ip), vehicle: saline sonified",96 % of control
same,T/C,"dose: 100.0 mg/kg/injection, schedule: Q04DX003 (ip), vehicle: saline sonified",100 % of control
O=C(O)c1cc2c([N+](=O)[O-])cccc2[se]1,T/C,"dose: 12.5 mg/kg/injection, schedule: Q01DX009 (ip), vehicle: saline",100 % of control
same,T/C,"dose: 25.0 mg/kg/injection, schedule: Q01DX009 (ip), vehicle: saline",100 % of control
same,T/C,[5],94 % of control and 97 % of control
CC1CCCN(c2cc3nc[nH]c(=O)c3cc2[N+](=O)[O-])C1 (stereo not drawn),T/C,[3],103 % of control
same,T/C,[4],100 % of control
same,T/C,"dose: 400.0 mg/kg/injection, schedule: Q04DX003 (ip), vehicle: Klucel (hydroxypropylcellulose) (HPC)",99 % of control
CC(=O)N1CCC23c4ccccc4N(C)C2CC(=O)CC13 (stereo not drawn),T/C,"dose: 8.75 mg/kg/injection, schedule: Q01DX005 (ip), vehicle: Klucel (hydroxypropylcellulose) (HPC)",97 % of control
same,T/C,"dose: 17.5 mg/kg/injection, schedule: Q01DX005 (ip), vehicle: Klucel (hydroxypropylcellulose) (HPC)",98 % of control
same,T/C,"dose: 35.0 mg/kg/injection, schedule: Q01DX005 (ip), vehicle: Klucel (hydroxypropylcellulose) (HPC)",103 % of control
O=C(CCCCC(=O)Nc1ccc2[nH]c3ccccc3c(=O)c2c1)Nc1ccc2[nH]c3ccccc3c(=O)c2c1,T/C,[6],104 % of control
same,T/C,[7],105 % of control
same,T/C,[8],100 % of control
N#Cc1c(NC(=O)CCC(=O)O)ccc2ccccc12,T/C,[5],99 % of control
same,T/C,[9],114 % of control
same,T/C,[10],114 % of control
O=C(COCC(=O)N/N=C/c1ccc(Cl)cc1)N/N=C/c1ccc(Cl)cc1,T/C,"dose: 6.25 mg/kg/injection, schedule: Q01DX005 (ip), vehicle: saline with Tween-80",95 % of control
same,T/C,"dose: 12.5 mg/kg/injection, schedule: Q01DX005 (ip), vehicle: saline with Tween-80",95 % of control
same,T/C,[8],95 % of control
ClCCN(CCCl)CCCN1c2ccccc2Sc2ccccc21,T/C,"dose: 3.12 mg/kg/injection, schedule: Q01DX009 (ip), vehicle: saline with Tween-80",122 % of control
CC(Br)C(=O)Nc1ncc([N+](=O)[O-])s1 (stereo not drawn),T/C,[9],95 % of control
same,T/C,[10],100 % of control
Cc1nc2c(sc3ccccc3n2C)c2nc3c(sc4ccccc4n3C)c(C)c12,T/C,[6],92 % of control
same,T/C,[7],90 % of control
same,T/C,[8],86 % of control
CSc1ccccc1P(c1ccccc1)c1ccccc1SC,T/C,[1],90 % of control
same,T/C,[2],91 % of control
same,T/C,"dose: 200.0 mg/kg/injection, schedule: Q01DX009 (ip), vehicle: Klucel (hydroxypropylcellulose) (HPC)",91 % of control
CC(=O)O[C@@H]1C[C@H]2C(C)(C)C(=O)C=C[C@]2(C)[C@H]2CC[C@]3(C)C(=CC(=O)O[C@H]3c3ccoc3)[C@@]21C,T/C,"dose: 2.5 mg/kg/injection, schedule: Q01DX009 (ip), vehicle: Klucel (hydroxypropylcellulose) (HPC)",103 % of control
same,T/C,"dose: 5.0 mg/kg/injection, schedule: Q01DX009 (ip), vehicle: Klucel (hydroxypropylcellulose) (HPC)",100 % of control
same,T/C,"dose: 10.0 mg/kg/injection, schedule: Q01DX009 (ip), vehicle: Klucel (hydroxypropylcellulose) (HPC)",103 % of control and 97 % of control
same,T/C,"dose: 20.0 mg/kg/injection, schedule: Q01DX009 (ip), vehicle: Klucel (hydroxypropylcellulose) (HPC)",95 % of control
same,T/C,"dose: 40.0 mg/kg/injection, schedule: Q01DX009 (ip), vehicle: Klucel (hydroxypropylcellulose) (HPC)",103 % of control
O=C1C(c2ccccc2)=C(c2ccccc2)/C1=C/c1ccc(Cl)cc1,T/C,[11],101 % of control
same,T/C,[12],105 % of control
same,T/C,[13],104 % of control
OCC(O)C(O)C(O)/C=N\Nc1ccccc1 (stereo not drawn),T/C,[5],100 % of control
same,T/C,[9],114 % of control
CCOC(=O)C1=C(N)CCCC1,T/C,"dose: 50.0 mg/kg/injection, schedule: Q01DX001 (ip), vehicle: Klucel (hydroxypropylcellulose) (HPC)",107 % of control
same,T/C,[11],96 % of control
same,T/C,[12],110 % of control
same,T/C,[13],99 % of control
NCCCCS(=O)(=O)Nc1ccc(Nc2c3ccccc3nc3cc([N+](=O)[O-])ccc23)cc1,T/C,"dose: 22.0 mg/kg/injection, schedule: Q04DX003 (ip), vehicle: saline",122 % of control
same,T/C,"dose: 38.9 mg/kg/injection, schedule: Q04DX003 (ip), vehicle: water",164 % of control
same,T/C,"dose: 50.0 mg/kg/injection, schedule: Q04DX003 (ip), vehicle: saline",150 % of control
same,T/C,"dose: 64.8 mg/kg/injection, schedule: Q04DX003 (ip), vehicle: water",180 % of control
same,T/C,"dose: 75.0 mg/kg/injection, schedule: Q04DX003 (ip), vehicle: saline",150 % of control
same,T/C,"dose: 108.0 mg/kg/injection, schedule: Q04DX003 (ip), vehicle: water",198 % of control
same,T/C,"dose: 150.0 mg/kg/injection, schedule: Q04DX003 (ip), vehicle: saline",172 % of control
same,T/C,"dose: 180.0 mg/kg/injection, schedule: Q04DX003 (ip), vehicle: water",99 % of control
same,T/C,"dose: 300.0 mg/kg/injection, schedule: Q04DX003 (ip), vehicle: saline",118 % of control
O=C(Nc1ncc([N+](=O)[O-])s1)C(Cl)Cl,T/C,[1],118 % of control
same,T/C,[2],111 % of control
[N-]=[N+]=NCC1OC(n2cnc3c(N)ncnc32)CC1O (stereo not drawn),T/C,"dose: 60.0 mg/kg/injection, schedule: Q01DX005 (ip), vehicle: saline",104 % of control
same,T/C,"dose: 120.0 mg/kg/injection, schedule: Q01DX005 (ip), vehicle: saline",100 % of control
same,T/C,"dose: 240.0 mg/kg/injection, schedule: Q01DX005 (ip), vehicle: saline",104 % of control
CCCC1OC1(CC)COC(=O)NC (stereo not drawn),T/C,[6],100 % of control
same,T/C,[7],101 % of control
same,T/C,[8],117 % of control
